# Results reported in ChEMBL document CHEMBL1201862, “PubChem BioAssay data set” (2004).
#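 Exposure lasted 48 hours, with cells grown in 96-well plates and compounds tested at five concentrations. The concentration for 50% growth inhibition is given as GI50.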 Active and inactive are the calls of the source. No stated cut-off is given here; in the data, active = GI50 up to about 1.1 µM and inactive = higher.
# Legend:
# Assay in all cases: NCI-60 cell line screen, 48 h
# 786-0 = test system: 786-0
# SW-620 = test system: SW-620
# SN12C = test system: SN12C
# HL-60 = test system: HL-60
# HCT-15 = test system: HCT-15
# HCC 2998 = test system: HCC 2998
# MOLT-4 = test system: MOLT-4
# SK-MEL-2 = test system: SK-MEL-2
# ACHN = test system: ACHN
# SK-MEL-28 = test system: SK-MEL-28
# NCI-H226 = test system: NCI-H226
# OVCAR-8 = test system: OVCAR-8
# HOP-62 = test system: HOP-62
# OVCAR-3 = test system: OVCAR-3
# RPMI-8226 = test system: RPMI-8226
SMILES,GI50 (786-0),GI50 (SW-620),GI50 (SN12C),GI50 (HL-60),GI50 (HCT-15),GI50 (HCC 2998),GI50 (MOLT-4),GI50 (SK-MEL-2),GI50 (ACHN),GI50 (SK-MEL-28),GI50 (NCI-H226),GI50 (OVCAR-8),GI50 (HOP-62),GI50 (OVCAR-3),GI50 (RPMI-8226)
CC1(C)OC2OC(/C=C/[N+](=O)[O-])C3OC(C)(C)OC3C2O1 (centres undefined),13.8 µM (inactive),3.27 µM (inactive),15.6 µM (inactive),2.94 µM (inactive),2.25 µM,16.8 µM (inactive),3.01 µM (inactive),18.2 µM (inactive),15.4 µM (inactive),18.2 µM (inactive),20.5 µM (inactive),8.47 µM (inactive),20.7 µM (inactive),16.4 µM (inactive),
COc1ccc(C(=O)O)c(Cc2ccc3ccccc3c2)c1,> 100 µM (inactive),> 100 µM (inactive),> 100 µM (inactive),> 100 µM (inactive),,,> 100 µM (inactive),> 100 µM (inactive),> 100 µM (inactive),> 100 µM (inactive),> 100 µM (inactive),> 100 µM (inactive),> 100 µM (inactive),> 100 µM (inactive),> 100 µM (inactive)
COc1ccc(/C(=C\c2cc(OC)c(OC)c(OC)c2)C(=O)O)cc1,38 µM (inactive),35 µM (inactive),37.9 µM (inactive),21.3 µM (inactive),32.1 µM,,27.5 µM (inactive),,72.8 µM (inactive),76.4 µM (inactive),28.1 µM (inactive),33.5 µM (inactive),37.1 µM (inactive),32 µM (inactive),27.4 µM (inactive)
COc1ccc(Nc2nc3c(N)cc(C(F)(F)F)cc3nc2-c2ccccc2)cc1OC,12.4 µM (inactive),57.4 µM (inactive),20.2 µM (inactive),8.63 µM (inactive),33.4 µM,24.1 µM (inactive),66.7 µM (inactive),22 µM (inactive),12.8 µM (inactive),26.2 µM (inactive),24.2 µM (inactive),15.1 µM (inactive),24.9 µM (inactive),18.8 µM (inactive),
O=c1c2cc(Br)ccc2nc(-c2ccccc2)n1NCC1(O)OCC(O)C(O)C1O (centres undefined),> 100 µM (inactive),> 100 µM (inactive),> 100 µM (inactive),26.2 µM (inactive),> 100 µM,,72.8 µM (inactive),> 100 µM (inactive),> 100 µM (inactive),> 100 µM (inactive),> 100 µM (inactive),> 100 µM (inactive),> 100 µM (inactive),81.8 µM (inactive),> 100 µM (inactive)
CC1=N/C(=C\c2ccc(/C=C3/N=C(C)OC3=O)cc2)C(=O)O1,> 100 µM (inactive),> 100 µM (inactive),> 100 µM (inactive),,> 100 µM,> 100 µM (inactive),> 10 µM (inactive),> 100 µM (inactive),> 100 µM (inactive),> 100 µM (inactive),,> 100 µM (inactive),> 100 µM (inactive),> 100 µM (inactive),> 100 µM (inactive)
NNC(=S)N/N=C/C(=C/Nc1ccccc1)[N+](=O)[O-],> 100 µM (inactive),> 100 µM (inactive),> 100 µM (inactive),> 100 µM (inactive),,> 100 µM (inactive),,> 100 µM (inactive),> 100 µM (inactive),> 100 µM (inactive),> 100 µM (inactive),> 100 µM (inactive),> 100 µM (inactive),> 100 µM (inactive),> 100 µM (inactive)
Cc1cccc(C2=NC(C)(C)C(C)(C)N=C2c2cccc(C)n2)n1,> 100 µM (inactive),> 100 µM (inactive),,53.6 µM (inactive),> 100 µM,> 100 µM (inactive),,> 100 µM (inactive),> 100 µM (inactive),> 100 µM (inactive),> 100 µM (inactive),> 100 µM (inactive),> 100 µM (inactive),44.1 µM (inactive),34.6 µM (inactive)
O=C(CCc1cc(-c2ccc(F)cc2)n[nH]1)N(Cc1ccccc1)Cc1ccccc1,> 100 µM (inactive),> 100 µM (inactive),> 100 µM (inactive),,> 100 µM,> 100 µM (inactive),> 100 µM (inactive),> 100 µM (inactive),> 100 µM (inactive),> 100 µM (inactive),> 100 µM (inactive),> 100 µM (inactive),> 100 µM (inactive),> 100 µM (inactive),> 100 µM (inactive)
Cc1ccc(-c2cc(-c3ccccc3)c(C#N)c(=O)n2C2OC(CO)C(O)C(O)C2O)cc1 (centres undefined),> 100 µM (inactive),> 100 µM (inactive),> 100 µM (inactive),> 100 µM (inactive),> 100 µM,> 100 µM (inactive),21.1 µM (inactive),,> 100 µM (inactive),> 100 µM (inactive),> 100 µM (inactive),> 100 µM (inactive),> 100 µM (inactive),> 100 µM (inactive),> 100 µM (inactive)
COC(=O)[C@]1(C)CCC[C@]2(C)C3CC4OOC3(C=C4C(C)(C)O)CCC21 (some centres undefined),30.1 µM (inactive),36.1 µM (inactive),> 100 µM (inactive),14.3 µM (inactive),37.8 µM,,22.2 µM (inactive),> 100 µM (inactive),47.8 µM (inactive),,31.1 µM (inactive),34.6 µM (inactive),> 100 µM (inactive),> 100 µM (inactive),16.7 µM (inactive)
OCC(O)C(OC1OC(CO)C(O)C(O)C1O)c1nn(-c2ccccc2)c2nc3cc(Cl)c(Cl)cc3cc12 (centres undefined),> 100 µM (inactive),,> 100 µM (inactive),,> 100 µM,> 100 µM (inactive),> 100 µM (inactive),,> 100 µM (inactive),> 100 µM (inactive),,> 100 µM (inactive),> 100 µM (inactive),> 100 µM (inactive),> 100 µM (inactive)
COC1=C(C(=O)OC(C)(C)C)C23CCCCC2(C(C(=O)OC(C)(C)C)=C(OC)C3C(=O)OC(C)(C)C)C1C(=O)OC(C)(C)C (centres undefined),> 100 µM (inactive),60.3 µM (inactive),38.2 µM (inactive),6.81 µM (inactive),15.2 µM,53.6 µM (inactive),6.46 µM (inactive),4.18 µM (inactive),20.1 µM (inactive),,42.7 µM (inactive),59.6 µM (inactive),> 100 µM (inactive),7.8 µM (inactive),8.47 µM (inactive)
CNC(=S)NC(=S)N(C)C,> 100 µM (inactive),2.96 µM (inactive),> 100 µM (inactive),3.42 µM (inactive),> 100 µM,> 100 µM (inactive),3.61 µM (inactive),,> 100 µM (inactive),6.32 µM (inactive),> 100 µM (inactive),4.94 µM (inactive),> 100 µM (inactive),3.18 µM (inactive),1.67 µM (inactive)
COC(=O)C(=O)C(C(=O)C(=O)Nc1cc(Cl)c(Cl)cc1Cl)c1nc2ccc([N+](=O)[O-])cc2nc1O (centres undefined),> 100 µM (inactive),> 100 µM (inactive),> 100 µM (inactive),,> 100 µM,> 100 µM (inactive),> 100 µM (inactive),> 100 µM (inactive),> 100 µM (inactive),> 100 µM (inactive),> 100 µM (inactive),> 100 µM (inactive),,,> 100 µM (inactive)
CCOC(=O)c1cc(=O)n(C)c(=O)n1C,> 100 µM (inactive),> 100 µM (inactive),> 100 µM (inactive),,> 100 µM,> 100 µM (inactive),> 100 µM (inactive),> 100 µM (inactive),> 100 µM (inactive),> 100 µM (inactive),> 100 µM (inactive),> 100 µM (inactive),> 100 µM (inactive),> 100 µM (inactive),
CCCCCCCCCCCCCP(=O)(O)O,> 100 µM (inactive),> 100 µM (inactive),> 100 µM (inactive),> 100 µM (inactive),> 100 µM,> 100 µM (inactive),,> 100 µM (inactive),> 100 µM (inactive),> 100 µM (inactive),> 100 µM (inactive),> 100 µM (inactive),> 100 µM (inactive),> 100 µM (inactive),
CCOC(=O)C1N(S(=O)(=O)c2ccc(C)cc2)CCC12C(c1ccc(OC)c(OC)c1)=Nc1ccccc12 (centres undefined),> 100 µM (inactive),> 100 µM (inactive),> 100 µM (inactive),> 100 µM (inactive),,> 100 µM (inactive),,,> 100 µM (inactive),> 100 µM (inactive),> 100 µM (inactive),> 100 µM (inactive),> 100 µM (inactive),> 100 µM (inactive),> 100 µM (inactive)
COc1cccc(N2C(=O)c3c(c4[nH]c5ccccc5c4c4ccc(C(C)(C)C)cc34)C2=O)c1,> 100 µM (inactive),> 100 µM (inactive),> 100 µM (inactive),,> 100 µM,> 100 µM (inactive),84.7 µM (inactive),> 100 µM (inactive),> 100 µM (inactive),> 100 µM (inactive),> 100 µM (inactive),> 100 µM (inactive),> 100 µM (inactive),> 100 µM (inactive),
CCN(CC)C(=O)CCn1cc(F)c(=O)[nH]c1=O,> 100 µM (inactive),> 100 µM (inactive),> 100 µM (inactive),> 100 µM (inactive),> 100 µM,,> 100 µM (inactive),> 100 µM (inactive),> 100 µM (inactive),> 100 µM (inactive),> 100 µM (inactive),> 100 µM (inactive),> 100 µM (inactive),> 100 µM (inactive),> 100 µM (inactive)
